Assay results as given in paper PMC2932872 (Journal of agricultural and food chemistry, 2010).
“And” between values parts separate entries of the source, which are not always exact repeats. Equal entries are not always repeated.

Assays:
[1] = cited from earlier work
SH-SY5Y cells [2] = test: Preliminary uptake of ^14C-MPS and ^14C-MPO in SH-SY5Y cells; format: in vitro ADME, human; details: 1 μM exposure; for share of total applied radioactivity that entered the cells: at the most
SH-SY5Y cells [3] = test: Fate in uptake experiments: OP and degradation products in cell cytosol; format: in vitro ADME, human; details: for uptake rate constant / amount of parent OP in the cytosol / total uptake (OP and degradation products): 1 μM exposure; for total uptake (OP and degradation products): 48 h (maximum); for OP associated with the membrane fraction (in words): uptake experiments; for Percentage of MPS in cell cytosol (per 10^6 cells) / Relative ratio of MPS in cell cytosol: 1 μM of OP
SH-SY5Y cells [4] = test: MTT viability assay; format: cell-based, human; details: for cytotoxicity (in words): 50 μM, 48 and 72 h
[5] = Stability of ^14C-MPS and ^14C-MPO in culture media; format: physicochemical; details: 1 μM; for OP recovered from the media unchanged: 72 h incubation in media, 37 °C
[6] = Fate in uptake experiments: OP and degradation products in culture media; format: in vitro ADME; details: cells exposed to 1 μM of OP
[7] = biological target: acetylcholinesterase (AChE, EC 3.1.1.7); details: cited from earlier work

CCOP(=O)(OCC)Oc1ccc([N+](=O)[O-])cc1 [ethyl paraoxon]
Log Po/w [1]: 1.6

COP(=O)(OC)Oc1ccc([N+](=O)[O-])cc1 [MPO, methyl paraoxon]
share of total applied radioactivity that entered the cells (SH-SY5Y cells [2]): ≤ 5% | maximum level of uptake (total amount of OP inside cells) (SH-SY5Y cells [2]; maximum at 48 h): 46 nM | uptake rate constant (SH-SY5Y cells [3]): 0.025 h⁻¹ | amount of parent OP in the cytosol (SH-SY5Y cells [3]; 48 h): 0.37 nM/10^6 cells | total uptake (OP and degradation products) (SH-SY5Y cells [3]): 1.76 nM/10^6 cells | OP associated with the membrane fraction (in words) (SH-SY5Y cells [3]): negligible amount | cytotoxicity (in words) (SH-SY5Y cells [4]): Some cytotoxicity | cytotoxicity (SH-SY5Y cells [4]; 100 μM, all time points (24, 48, 72 h)): at least 60% | OP recovered from the media unchanged [5]: more than 50%

COP(=S)(OC)Oc1ccc([N+](=O)[O-])cc1 [MPS, OO, -dimethyl O-4-nitrophenyl phosphorothioate]
share of total applied radioactivity that entered the cells (SH-SY5Y cells [2]): ≤ 5% | maximum level of uptake (total amount of OP inside cells) (SH-SY5Y cells [2]; maximum at 24 h): 13 nM | Log Po/w [1]: 3.0 | uptake rate constant (SH-SY5Y cells [3]): 0.054 h⁻¹ | amount of parent OP in the cytosol (SH-SY5Y cells [3]; 48 h): 0.54 nM/10^6 cells | total uptake (OP and degradation products) (SH-SY5Y cells [3]): 1.19 nM/10^6 cells | Percentage of MPS in cell cytosol (per 10^6 cells) (SH-SY5Y cells [3]; 24 h): 0.036 ± 0.001% | Relative ratio of MPS in cell cytosol (SH-SY5Y cells [3]; 24 h): 45.3 ± 1.5 | Percentage of MPS in cell cytosol (per 10^6 cells) (SH-SY5Y cells [3]; 48 h): 0.054 ± 0.006% | Relative ratio of MPS in cell cytosol (SH-SY5Y cells [3]; 48 h, listed as 14C-MPS): 46 and 45.8 ± 2.0 | Percentage of MPS in cell cytosol (per 10^6 cells) (SH-SY5Y cells [3]; 72 h): 0.043 ± 0.004% | Relative ratio of MPS in cell cytosol (SH-SY5Y cells [3]; 72 h): 43.5 ± 1.8 | OP associated with the membrane fraction (in words) (SH-SY5Y cells [3]): negligible amount | cytotoxicity (in words) (SH-SY5Y cells [4]): Some cytotoxicity | cell viability (in words) (SH-SY5Y cells [4]; 100 μM, 24 h): no significant decrease in viability | cytotoxicity (SH-SY5Y cells [4]; 100 μM, 24 h): 4–5% and 4% | cytotoxicity (SH-SY5Y cells [4]; 100 μM, 48 h): ~ 60% and 60% | cytotoxicity (SH-SY5Y cells [4]; 100 μM, 72 h): 90% | OP recovered from the media unchanged [5]: more than 50% | ^14C-MPO formed by oxidation in media ([5]; after 4 days in media): less than 1% | Relative ratio of MPS in culture media ([6]; 24 h): 74.3 ± 1.0 | Relative ratio of MPS in culture media ([6]; 48 h): 63.9 ± 0.1 | Relative ratio of MPS in culture media ([6]; 72 h): 52.9 ± 0.8

CCOP(=S)(OCC)Oc1ccc([N+](=O)[O-])cc1 [Parathion]
IC50 (cholinesterase inhibition) [7]: 10^−4 to 10^−5 M

CCOP(=O)(OCC)Oc1ccc([N+](=O)[O-])cc1 [paraoxon]
IC50 ([7]; read-out: IC50 (inhibition of AChE)): 10 nM
